Measurements published in patent publication US12162879B2, “Pyridopyrimidine derivative, preparation method therefor and medical use thereof” (Jiangsu Hengrui Medicine Co., Ltd., priority 2018, dated 2024).

Tests used:
[1] = molecular target: CYP3A4 (testosterone metabolite site) (Homo sapiens (Human), UniProt P08684); assay: Inhibition of enzyme activity of testosterone metabolite site of CYP3A4 in human liver microsomes; format: in vitro ADME; details: human liver microsome, testosterone probe substrate, 30 minutes
Experimental: The effect of the compounds of the present invention on the enzyme activity of testosterone metabolite site of CYP3A4 in human liver microsomes was determined by the following experimental method.
(§1) • 1. Phosphate buffer solution (PBS); • 2. NADPH (Sigma N-1630); • 3. Human liver microsome (Corning Gentest); • 4. ABI QTrap 4000 liquid chromatograph/mass spectrometer (AB Sciex); • 5. Inertsil C8-3 column, 4.6×50 mm, 5 μm (Dikma Technologies Inc., USA); and • 6. CYP probe substrate (testosterone/100 μM, SIGMA K1003) and positive control inhibitor (ketoconazole, Dr. Ehrenstorfer GmbH, C17322500). II. Experimental Procedures
(§2) 100 mM PBS buffer was formulated, which was then used to formulate 2.5 mg/ml human microsome solution and 5 mM NADPH solution. The 5× concentration of the compound working solution was diluted with PBS in gradients (150, 50, 15, 5, 1.5, 0.15, 0.015, 0 μM). The 5× concentration of ketoconazole working solution was diluted with PBS in gradients (150, 50, 15, 5, 1.5, 0.15, 0.015, 0 μM). Dextromethorphan working solution was diluted with PBS to a concentration of 50 μM.
(§3) 20 μl of 2.5 mg/ml microsome solution, 20 μl of 50 μM testosterone working solution, 20 μl of MgCl2 solution and 20 μl of the compound working solution (150, 50, 15, 5, 1.5, 0.15, 0.015, 0 μM, different reaction systems for each concentration) were mixed well. For the positive control group, the compound was replaced with the same concentration of ketoconazole. The mixture together with 5 mM NADPH solution was pre-incubated at 37° C. for 5 minutes. After 5 minutes, 20 μl of NADPH was added to each well, the reaction was initiated, and the plate was incubated for 30 minutes. All the incubated samples were present in duplicate. After 30 minutes, 250 μl of acetonitrile containing internal standard (100 ng/ml camptothecin) was added to all samples, mixed well, shaken at 800 rpm for 10 minutes, and then centrifuged at 3700 rpm for 10 minutes. 80 μl of the supernatant was taken and analyzed by LC-MS/MS.
The data was calculated by Graphpad Prism to obtain the IC50 values of the compounds on the testosterone metabolite site of CYP3A4, which are shown in Table 4.

[2] = molecular target: CYP3A4 (midazolam metabolite site) (Homo sapiens (Human), UniProt P08684); assay: Inhibition of enzyme activity of midazolam metabolite site of CYP3A4 in human liver microsome; format: in vitro ADME; details: midazolam probe substrate, 30 minutes
Experimental: The effect of the compounds of the present invention on the enzyme activity of midazolam metabolite site of CYP3A4 in human liver microsomes was determined by the following experimental method.
as §1, with “(PBS) (Shanghai Basalmedia Technologies Co., Ltd., B320, similarly hereinafter);” for “(PBS);”, “(15 μM midazolam,” for “(testosterone/100 μM,”, “UC429)” for “K1003)”, “SIGMA K1003).” for “Dr. Ehrenstorfer GmbH, C17322500).”
as §2, with “μM). Midazolam” for “μM). Dextromethorphan”, “of 15” for “of 50”
as §3, with “of 15” for “of 50”, “μM midazolam” for “μM testosterone”
The data was calculated by Graphpad Prism to obtain the IC50 values of the compounds on the midazolam metabolite site of CYP3A4, which are shown in Table 2.

CYP3A4 (midazolam metabolite site), sequence (P08684 whole entry): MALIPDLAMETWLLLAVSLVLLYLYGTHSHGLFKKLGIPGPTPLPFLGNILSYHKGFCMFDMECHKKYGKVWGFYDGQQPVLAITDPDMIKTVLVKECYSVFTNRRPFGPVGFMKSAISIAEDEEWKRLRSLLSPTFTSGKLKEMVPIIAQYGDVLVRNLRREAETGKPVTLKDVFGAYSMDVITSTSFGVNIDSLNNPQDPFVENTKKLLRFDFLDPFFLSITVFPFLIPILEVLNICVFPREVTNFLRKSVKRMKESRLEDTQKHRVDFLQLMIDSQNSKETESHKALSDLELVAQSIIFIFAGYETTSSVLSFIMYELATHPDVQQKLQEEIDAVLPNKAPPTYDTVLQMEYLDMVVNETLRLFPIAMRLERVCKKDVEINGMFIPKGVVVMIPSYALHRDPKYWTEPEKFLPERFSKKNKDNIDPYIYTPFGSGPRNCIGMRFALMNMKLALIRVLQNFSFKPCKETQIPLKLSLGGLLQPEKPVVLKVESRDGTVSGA
CYP3A4 (testosterone metabolite site), sequence (P08684 whole entry): as above

| IC50 [1] [µM] | IC50 [2] [µM] | Structure (SMILES) |
| --- | --- | --- |
| > 30 | > 30 | CCCC[C@](C)(CO)Nc1nc(N)nc2cc(-c3ccc(CN4CCN(C)CC4)nc3)cnc12 [Example 6, (R)-2-((2-Amino-7-(6-((4-methylpiperazin-1-yl)methyl)pyridin-3-yl)pyrido[3,2-d]pyrimidin-4-yl)amino)-2-methylhexan-1-ol] |
|  | 27 | CCCC[C@](C)(CO)Nc1nc(N)nc2cc(-c3ccc(CN4CCCC4)nc3)cnc12 [Example 2, (R)-2-((2-Amino-7-(6-(pyrrolidin-1-ylmethyl)pyridin-3-yl)pyrido[3,2-d]pyrimidin-4-yl)amino)-2-methylhexan-1-ol] |
| 16 | > 30 | CCCC[C@](C)(CO)Nc1nc(N)nc2cc(-c3ccc(C4CCN(C)CC4)nc3)cnc12 [Example 4, (R)-2-((2-Amino-7-(6-(1-methylpiperidin-4-yl)pyridin-3-yl)pyrido[3,2-d]pyrimidin-4-yl)amino)-2-methylhexan-1-ol] |
| > 30 | > 30 | CCCC[C@](C)(CO)Nc1nc(N)nc2cc(-c3cnc(C4CCN(C)CC4)nc3)cnc12 [Example 8, (R)-2-((2-Amino-7-(2-(1-methylpiperidin-4-yl)pyrimidin-5-yl)pyrido[3,2-d]pyrimidin-4-yl)amino)-2-methylhexan-1-ol] |
| 8.3 | > 30 | CCCCC(C)(CO)Nc1nc(N)nc2cc(-c3ccc(CN4CCN(C)CC4)nc3)cnc12 (stereo not drawn) [Example 5, 2-((2-Amino-7-(6-((4-methylpiperazin-1-yl)methyl)pyridin-3-yl)pyrido[3,2-d]pyrimidin-4-yl)amino)-2-methylhexan-1-ol] |
